According to paper PMC8450076, “Structural and mechanistic insights into the Artemis endonuclease and strategies for its inhibition” (Nucleic Acids Research, 2021):

Assays:
[1] = biological target: T1, Artemis (SNM1C/DCLRE1C) (Homo sapiens, UniProt Q96SD1); assay: biochemical
Target sequence in this assay (Q96SD1 whole entry, the tested form may be a part): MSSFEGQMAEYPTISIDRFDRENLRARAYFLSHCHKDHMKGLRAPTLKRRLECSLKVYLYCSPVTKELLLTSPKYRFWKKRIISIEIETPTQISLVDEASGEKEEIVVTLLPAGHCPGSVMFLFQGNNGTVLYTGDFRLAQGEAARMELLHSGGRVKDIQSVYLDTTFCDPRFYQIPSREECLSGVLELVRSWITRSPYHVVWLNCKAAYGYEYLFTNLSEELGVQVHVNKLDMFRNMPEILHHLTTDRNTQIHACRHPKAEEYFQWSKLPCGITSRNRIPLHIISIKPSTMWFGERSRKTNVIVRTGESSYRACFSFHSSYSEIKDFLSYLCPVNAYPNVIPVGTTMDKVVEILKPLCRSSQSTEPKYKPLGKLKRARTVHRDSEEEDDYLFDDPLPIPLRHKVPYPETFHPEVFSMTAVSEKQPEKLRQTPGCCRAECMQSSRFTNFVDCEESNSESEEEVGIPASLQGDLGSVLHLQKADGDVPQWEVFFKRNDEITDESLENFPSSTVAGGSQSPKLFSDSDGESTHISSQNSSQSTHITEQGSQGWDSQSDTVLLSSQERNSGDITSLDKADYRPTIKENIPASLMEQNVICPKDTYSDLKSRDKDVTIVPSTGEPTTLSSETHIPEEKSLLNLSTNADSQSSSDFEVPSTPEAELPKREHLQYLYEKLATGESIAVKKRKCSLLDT

[2] = biological target: T1, Artemis (SNM1C/DCLRE1C); assay: X-ray crystal structure ([…] Å) plus real-time fluorescence-based nuclease assay (IC50); assay type: biochemical; set-up: truncated Artemis catalytic domain, MBL-β-CASP (aa 1-361)
Description: We solved a structure of ceftriaxone bound to Artemis
Target sequence in this assay (Q96SD1 1-361): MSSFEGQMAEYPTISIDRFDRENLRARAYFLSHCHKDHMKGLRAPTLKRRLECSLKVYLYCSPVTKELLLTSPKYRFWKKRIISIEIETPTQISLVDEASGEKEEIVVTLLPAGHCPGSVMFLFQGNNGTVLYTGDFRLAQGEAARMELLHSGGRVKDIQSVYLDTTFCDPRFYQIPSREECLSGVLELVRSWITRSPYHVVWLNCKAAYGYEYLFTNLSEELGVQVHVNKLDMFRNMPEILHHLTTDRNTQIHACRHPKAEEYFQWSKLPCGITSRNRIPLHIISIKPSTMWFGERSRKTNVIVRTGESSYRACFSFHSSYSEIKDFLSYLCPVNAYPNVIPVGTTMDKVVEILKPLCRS

SMILES | IC50 [1] [µM] | other results
CC[P](CC)(CC)=[Au][S][C@@H]1O[C@H](COC(C)=O)[C@@H](OC(C)=O)[C@H](OC(C)=O)[C@H]1OC(C)=O [auranofin] | 46 | 
CO/N=C(\C(=O)N[C@@H]1C(=O)N2C(C(=O)O)=C(CSc3nc(=O)c(=O)[nH]n3C)CS[C@H]12)c1csc(N)n1 [ceftriaxone] |  | IC50 [2]: 65 µM
CCN(CC)C(=S)SSC(=S)N(CC)CC [disulfiram] |  | IC50 ([1]; read-out: IC50): ~10.8 µM
O=c1c2ccccc2[se]n1-c1ccccc1 [ebselen] | ~8.5 | 
